{"source": "patent US20020076736A1", "about": "“Methods of affecting laminin 5 processing” (priority 2000, published 2002)", "key": {"[1]": {"system": "SCC-25", "test": "MTT toxicity assay, SCC-25", "type": "cell-based, human", "conditions": "24 hour"}, "[2]": {"system": "KLASV cells", "quoted_text": "To allow for attachment to the tissue culture dish, KLASV cells were plated in tissue culture wells previously coated with type I collagen."}, "[3]": {"target": "MT1-MMP (Homo sapiens, UniProt P50281)", "test": "Inhibition of MT1-MMP activity", "type": "biochemical"}, "[4]": {"system": "SCC-25 cells", "test": "Matrigel invasion chamber, SCC-25", "type": "cell-based, human", "conditions": "5 μM; 24 hours", "protocol": "(§1) The assay is a standard in vitro measure of tumor cell invasion. Tumor cells are plated atop a layer of fabricated basement membrane and allowed to migrate over the course of 24 hours towards conditioned 3T3 medium, which contains a chemo-attractant, located in a lower chamber. […] (FIG. 25.)"}, "[5]": {"target": "T1, MMP-2 (Homo sapiens, UniProt P08253)", "T1 sequence (P08253 110-660)": "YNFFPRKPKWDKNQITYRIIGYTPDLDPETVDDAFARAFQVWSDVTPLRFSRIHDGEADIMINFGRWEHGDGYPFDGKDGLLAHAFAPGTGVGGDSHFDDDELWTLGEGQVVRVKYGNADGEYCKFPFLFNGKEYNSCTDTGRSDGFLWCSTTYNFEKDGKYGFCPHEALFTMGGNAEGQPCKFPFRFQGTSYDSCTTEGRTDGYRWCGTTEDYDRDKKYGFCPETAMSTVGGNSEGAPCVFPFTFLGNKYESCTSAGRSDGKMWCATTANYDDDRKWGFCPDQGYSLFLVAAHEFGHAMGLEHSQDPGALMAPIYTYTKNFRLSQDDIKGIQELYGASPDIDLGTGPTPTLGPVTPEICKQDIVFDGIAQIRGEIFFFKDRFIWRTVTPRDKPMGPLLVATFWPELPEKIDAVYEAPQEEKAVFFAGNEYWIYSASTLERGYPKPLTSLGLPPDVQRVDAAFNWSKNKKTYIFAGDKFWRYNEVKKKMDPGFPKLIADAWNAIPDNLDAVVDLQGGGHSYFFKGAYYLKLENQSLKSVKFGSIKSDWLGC", "test": "Inhibition of MMP-2 activity", "type": "biochemical"}, "[6]": {"system": "SiHa", "test": "MTT toxicity assay, SiHa", "type": "cell-based", "conditions": "24 hour"}, "[7]": {"target": "T2, MMP-1 (Homo sapiens, UniProt P03956)", "T2 sequence (P03956 100-469)": "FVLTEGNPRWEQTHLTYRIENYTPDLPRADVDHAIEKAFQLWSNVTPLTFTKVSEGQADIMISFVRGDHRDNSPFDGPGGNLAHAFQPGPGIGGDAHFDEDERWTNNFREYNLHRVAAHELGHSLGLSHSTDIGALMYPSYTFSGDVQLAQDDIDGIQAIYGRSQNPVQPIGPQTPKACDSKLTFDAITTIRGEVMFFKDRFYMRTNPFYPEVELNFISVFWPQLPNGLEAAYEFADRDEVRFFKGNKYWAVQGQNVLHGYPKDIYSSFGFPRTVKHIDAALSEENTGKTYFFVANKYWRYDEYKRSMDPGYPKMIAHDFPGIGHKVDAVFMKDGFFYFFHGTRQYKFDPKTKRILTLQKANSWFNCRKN", "test": "Inhibition of MMP-1 activity", "type": "biochemical"}, "[8]": {"system": "keratinocytes", "test": "Keratinocyte migration, Boyden chambers", "type": "cell-based", "protocol": "Compounds 1 and 2 were used to examine the functional effects of processing by BMP-1 related proteins on keratinocyte migration. […] Keratinocytes were analyzed for migration in Boyden chambers in the presence of increasing amounts of the inhibitors. […] (Koivunen et al. (1999) Nature Biotechnology 17:768-774.)"}, "[9]": {"system": "laminin 5 processing in squamous cell carcinoma cell line SCC-25", "test": "Laminin 5 processing in SCC-25 cells, western blot", "type": "cell-based, human", "conditions": "1, 5, 10 μM; 48 hours", "protocol": "(§2) This is shown by western blot analysis. […] (FIG. 13: lane 1, control; lane 2, 1 μM; lane 3, 5 μM; lane 4, 10 μM.)"}, "[10]": {"system": "SiHa cells", "test": "Matrigel invasion chamber, SiHa", "type": "cell-based", "conditions": "24 hours; cell line unable to produce laminin 5", "protocol": "as §1"}, "[11]": {"system": "squamous carcinoma cell line SCC-25", "test": "Scratch assay, SCC-25", "type": "cell-based, human", "protocol": "(§3) To approximate in vivo epidermal cell migration, during which epidermal cells move as sheets, scratch assays were utilized. Normal human keratinocytes were plated to confluence in the presence of either of the inhibitors (10 μM) or DMSO, and the cells allowed to attach for 6 hours. A 2 mm scratch was produced in the culture, marked, and the migration of the cells studied for the following 24 to 48 hours. […] (FIG. 7B.) When scratched plates were subsequently washed after 24 hours of incubation with the inhibitors, and incubated for an additional 24 hours in the absence of inhibitors, normal migration equivalent to that of the control conditions was noted.\nIn addition, squamous carcinoma cell line SCC-25 (ATCC Number CRL-1628) was examined by the described scratch assay using the inhibitors. […] Washing out of the inhibitors for an additional 48 hour time period restored normal SCC migration.\n(§4) A dose-dependent study of Compound 2 was performed on keratinocyte cultures. In these assays, a scratch was placed in a confluent layer of cells, and the migration of the cells into the scratched area was assessed after 48 hours. In the absence of inhibitor, normal immortalized keratinocytes (NIK) migrated into the scratch area."}, "[12]": {"system": "normal keratinocytes", "test": "Keratinocyte detachment by trypsin", "type": "cell-based", "conditions": "cultured 24 hours with compound; 0.05% trypsin", "text": "The mode of attachment of keratinocytes to processed and unprocessed laminin 5 was examined by two methods. […] (FIG. 20.)"}, "[13]": {"system": "laminin 5 processing in squamous cell carcinoma cell line SCC-15", "test": "Laminin 5 processing in SCC-15 cells, western blot", "type": "cell-based", "conditions": "1, 5, 10 μM; 48 hours", "protocol": "as §2"}, "[14]": {"system": "squamous carcinoma cells", "test": "Migration of squamous carcinoma cells (general statement)", "type": "cell-based"}, "[15]": {"system": "laminin 5 processing in normal immortalized keratinocytes (NIK)", "test": "Laminin 5 processing in normal immortalized keratinocytes, western blot", "type": "cell-based", "conditions": "1, 5, 8 μM; 48 hours"}, "[16]": {"system": "laminin 5 processing in normal human keratinocytes", "test": "Laminin 5 processing in keratinocyte cultures, western blot", "type": "cell-based", "protocol": "Each of the inhibitors was added to freshly plated cultures of normal human keratinocytes. After 16 hours, laminin 5 was extracted from cultures and analyzed by western blot using a polyclonal antibody to laminin 5."}, "[17]": {"system": "normal immortalized keratinocytes (NIK)", "test": "Scratch assay, normal immortalized keratinocytes", "type": "cell-based", "protocol": "as §4"}, "[18]": {"target": "mTll-1 (Homo sapiens, UniProt O43897)", "sequence (O43897 148-1013)": "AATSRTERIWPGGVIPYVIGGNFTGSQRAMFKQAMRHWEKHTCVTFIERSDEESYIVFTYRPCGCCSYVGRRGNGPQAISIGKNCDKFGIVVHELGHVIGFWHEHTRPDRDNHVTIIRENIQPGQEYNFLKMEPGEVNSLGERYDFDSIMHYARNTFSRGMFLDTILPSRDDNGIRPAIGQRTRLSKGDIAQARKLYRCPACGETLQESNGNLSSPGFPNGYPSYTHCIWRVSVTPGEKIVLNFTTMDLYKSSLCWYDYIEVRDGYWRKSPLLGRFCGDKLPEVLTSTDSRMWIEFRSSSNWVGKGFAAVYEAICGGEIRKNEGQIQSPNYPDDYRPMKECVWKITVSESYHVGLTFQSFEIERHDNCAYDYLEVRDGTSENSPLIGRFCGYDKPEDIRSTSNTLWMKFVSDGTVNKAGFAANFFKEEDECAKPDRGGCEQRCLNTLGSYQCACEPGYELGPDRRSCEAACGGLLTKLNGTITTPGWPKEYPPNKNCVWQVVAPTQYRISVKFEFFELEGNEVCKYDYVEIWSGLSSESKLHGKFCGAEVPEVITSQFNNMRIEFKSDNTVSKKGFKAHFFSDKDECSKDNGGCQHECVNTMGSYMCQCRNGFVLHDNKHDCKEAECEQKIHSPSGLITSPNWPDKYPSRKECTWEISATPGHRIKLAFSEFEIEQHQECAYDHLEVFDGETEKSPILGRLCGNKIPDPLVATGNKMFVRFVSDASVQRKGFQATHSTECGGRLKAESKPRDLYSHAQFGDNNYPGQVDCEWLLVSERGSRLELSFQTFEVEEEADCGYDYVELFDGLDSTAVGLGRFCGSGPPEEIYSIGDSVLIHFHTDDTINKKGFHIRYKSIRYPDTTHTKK", "test": "Cleavage of unprocessed laminin 5 matrix by mTll-1, western blot", "type": "biochemical", "conditions": "10 μM", "protocol": "(§5) The processing of laminin 5 by various BMP-1 related proteins was examined. […] The cells were then removed from the culture dish by 20 mM ammonium sulfate, the dish was washed, and the matrix was incubated in increasing amounts of each BMP-1 related protein. After proteolytic digestion, the matrix was extracted and examined by western blot analysis. […] BMP-1 and mTLL-2 cleaved the γ2 chain of laminin 5."}, "[19]": {"system": "SCC-15 cells", "test": "Matrigel invasion chamber, SCC-15", "type": "cell-based", "conditions": "5 μM; 24 hours", "protocol": "as §1"}, "[20]": {"system": "cultured cells", "test": "Toxicity to cultured cells", "type": "cell-based"}, "[21]": {"target": "mTll-2 (Homo sapiens, UniProt Q9Y6L7)", "sequence (Q9Y6L7 150-1015)": "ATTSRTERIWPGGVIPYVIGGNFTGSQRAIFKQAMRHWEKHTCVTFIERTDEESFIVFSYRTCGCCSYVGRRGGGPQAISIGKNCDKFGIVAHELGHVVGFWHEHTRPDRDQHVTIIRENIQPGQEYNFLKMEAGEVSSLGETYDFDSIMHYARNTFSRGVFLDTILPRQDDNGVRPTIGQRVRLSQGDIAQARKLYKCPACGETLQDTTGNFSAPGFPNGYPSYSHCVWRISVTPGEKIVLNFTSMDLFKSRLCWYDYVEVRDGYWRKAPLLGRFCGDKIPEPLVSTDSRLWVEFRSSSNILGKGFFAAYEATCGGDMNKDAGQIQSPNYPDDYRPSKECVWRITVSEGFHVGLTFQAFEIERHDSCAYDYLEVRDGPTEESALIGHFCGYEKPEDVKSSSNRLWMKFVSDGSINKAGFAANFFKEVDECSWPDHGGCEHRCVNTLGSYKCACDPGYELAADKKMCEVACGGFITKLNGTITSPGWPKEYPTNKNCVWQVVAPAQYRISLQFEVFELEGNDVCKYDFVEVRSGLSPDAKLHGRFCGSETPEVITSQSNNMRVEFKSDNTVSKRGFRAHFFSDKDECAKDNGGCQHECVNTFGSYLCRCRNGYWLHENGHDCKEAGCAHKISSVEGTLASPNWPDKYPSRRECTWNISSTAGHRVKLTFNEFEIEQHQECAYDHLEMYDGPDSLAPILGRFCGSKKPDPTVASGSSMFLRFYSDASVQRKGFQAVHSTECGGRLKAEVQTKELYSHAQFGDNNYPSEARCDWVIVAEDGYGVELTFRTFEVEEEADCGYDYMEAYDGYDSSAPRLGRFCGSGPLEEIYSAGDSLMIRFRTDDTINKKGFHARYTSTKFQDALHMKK", "test": "Cleavage of unprocessed laminin 5 matrix by mTll-2, western blot", "type": "biochemical", "conditions": "10 μM", "protocol": "as §5"}, "[22]": {"system": "squamous cell carcinoma cell line SCC-15", "test": "Scratch assay, SCC-15", "type": "cell-based", "conditions": "1, 5, 10 μM; 48 hours"}, "[23]": {"system": "SCC-15", "test": "MTT toxicity assay, SCC-15", "type": "cell-based", "conditions": "24 hour"}, "[24]": {"system": "normal human keratinocytes", "test": "Scratch assay, normal human keratinocytes", "type": "cell-based", "conditions": "10 μM; 24 hours", "protocol": "as §3"}, "[25]": {"target": "MMP-9 (Homo sapiens, UniProt P14780)", "sequence (P14780 94-707, species assumed)": "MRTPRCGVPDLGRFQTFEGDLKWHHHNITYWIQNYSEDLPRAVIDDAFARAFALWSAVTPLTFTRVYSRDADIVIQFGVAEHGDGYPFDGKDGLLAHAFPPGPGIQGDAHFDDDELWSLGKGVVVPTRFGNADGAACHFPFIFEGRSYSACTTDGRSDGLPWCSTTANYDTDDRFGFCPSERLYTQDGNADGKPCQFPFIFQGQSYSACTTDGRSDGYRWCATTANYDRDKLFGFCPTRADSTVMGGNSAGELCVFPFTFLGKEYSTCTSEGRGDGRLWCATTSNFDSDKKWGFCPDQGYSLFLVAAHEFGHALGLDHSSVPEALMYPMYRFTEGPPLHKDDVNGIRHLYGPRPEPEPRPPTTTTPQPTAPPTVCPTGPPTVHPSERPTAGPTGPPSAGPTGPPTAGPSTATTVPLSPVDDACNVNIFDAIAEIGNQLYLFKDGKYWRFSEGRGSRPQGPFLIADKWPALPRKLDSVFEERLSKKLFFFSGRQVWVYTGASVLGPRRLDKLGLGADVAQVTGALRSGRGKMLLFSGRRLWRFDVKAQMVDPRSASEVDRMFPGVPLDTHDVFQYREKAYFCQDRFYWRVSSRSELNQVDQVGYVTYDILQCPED", "test": "Inhibition of MMP-9 activity", "type": "biochemical"}}, "note": "Entries after “also recorded” stand apart in the source; their conditions may differ."}
{"smiles": "COc1ccc(CCN(CCC(=O)NO)S(=O)(=O)c2ccc(NC(=O)NCc3ccccc3)cc2)cc1", "note": "[Compound 2]", "values": [{"measurement": "MTT toxicity, SCC-25", "setting": "[1]", "value": "little or no toxicity"}, {"measurement": "migration of KLASV cells", "setting": "[2]; type I collagen coated dishes, 10 μM, 48 hr", "value": "not inhibited"}, {"measurement": "migration of KLASV cells into the scratch", "setting": "[2]; type I collagen coated wells, 24 hours, compared to non-treated control", "value": "significant migration into the scratch"}, {"measurement": "inhibition of activity of MT1-MMP", "setting": "[3]", "value": "no inhibition"}, {"measurement": "invasion of SCC-25 cells", "setting": "[4]", "value": "able to inhibit the invasion"}, {"measurement": "inhibition of activity of MMP-2", "setting": "[5]", "value": "no inhibition"}, {"measurement": "MTT toxicity, SiHa", "setting": "[6]", "value": "little or no toxicity"}, {"measurement": "inhibition of activity of MMP-1", "setting": "[7]", "value": "no inhibition"}, {"measurement": "inhibition of keratinocyte migration", "setting": "[8]", "value": "potently inhibit"}, {"measurement": "keratinocyte migration in transwells or over a scratch", "setting": "[8]; 10 μM", "value": "almost complete lack of migration"}, {"measurement": "inhibition of keratinocyte migration, dose dependence", "setting": "[8]; Boyden chamber and scratch assays", "value": "inhibition of KC migration in a dose-dependent manner"}, {"measurement": "dose required to achieve nearly complete inhibition of migration", "setting": "[8]; Boyden chambers", "value": 10, "unit": "µM"}, {"measurement": "processing of laminin 5 in SCC-25, dose dependence", "setting": "[9]", "value": "dose-dependent effect"}, {"measurement": "invasion of SiHa cells", "setting": "[10]", "value": "not able to inhibit the invasion"}, {"measurement": "SCC-25 migration response compared with keratinocytes", "setting": "[11]; 10 μM", "value": "identical response"}, {"measurement": "inhibition of SCC cell migration on type I collagen coated versus non-coated dishes", "setting": "[11]; 10 μM, 48 hr", "value": "equally effective at inhibiting cell migration"}, {"measurement": "SCC-25 migration into the scratch", "setting": "[11]; 10 μM, up to 48 hours", "value": "effective at preventing SCC-25 migration"}, {"measurement": "migration of SCC-25 into the scratch area, dose dependence", "setting": "[11]; 1, 5, 10 μM, 48 hours", "value": "dose-dependent effect"}, {"measurement": "resistance of treated cells to trypsin detachment", "setting": "[12]", "value": "more resistant to trypsin treatment"}, {"measurement": "processing of laminin 5 in SCC-15, dose dependence", "setting": "[13]", "value": "dose-dependent effect"}, {"measurement": "inhibition of migration of squamous carcinoma cells", "setting": "[14]", "value": "potently inhibit"}, {"measurement": "processing of laminin 5 in NIK, dose dependence", "setting": "[15]", "value": "dose-dependent effect"}, {"measurement": "processing of laminin 5 deposited by cultured keratinocytes", "setting": "[16]; 10 μM", "value": "prevented processing of laminin 5"}, {"measurement": "level of expression of laminin 5", "setting": "[16]; 16 hours, western blot", "value": "did not significantly change"}, {"measurement": "processing of the α3 and γ2 chains of laminin 5", "setting": "[16]; 16 hours, western blot", "value": "completely inhibited"}, {"measurement": "laminin 5 α3 chain and γ2 chain processing, dose dependence", "setting": "[16]; dose-dependent manner", "value": "inhibited laminin 5 α3 chain and γ2 chain processing"}, {"measurement": "inhibition of keratinocyte migration on type I collagen coated versus non-coated dishes", "setting": "[17]; 10 μM, 48 hr", "value": "equally effective at inhibiting cell migration"}, {"measurement": "migration of NIK into the scratch area, dose dependence", "setting": "[17]; 1, 5, 8 μM, 48 hours", "value": "dose-dependent inhibition of migration"}, {"measurement": "cleavage of laminin 5 α3 chain by mTLL-1", "setting": "[18]", "value": "inhibited cleavage of laminin 5 α3 chain"}, {"measurement": "invasion of SCC-15 cells", "setting": "[19]", "value": "able to inhibit the invasion"}, {"measurement": "toxicity to cultured cells at 100 times inhibitory levels", "setting": "[20]; 100 times the concentration which inhibited BMP-1 activity", "value": "nontoxic"}, {"measurement": "toxic effect on cells", "setting": "[20]; cell culture", "value": "nontoxic; also recorded: non-toxic; also recorded: no toxic effect on cells"}, {"measurement": "cleavage of laminin 5 α3 chain by mTLL-2", "setting": "[21]", "value": "inhibited cleavage of laminin 5 α3 chain"}, {"measurement": "cleavage of laminin 5 γ2 chain by mTLL-2", "setting": "[21]", "value": "inhibited cleavage of laminin 5 γ2 chain"}, {"measurement": "migration of SCC-15 into the scratch area, dose dependence", "setting": "[22]", "value": "dose-dependent effect"}, {"measurement": "MTT toxicity, SCC-15", "setting": "[23]", "value": "little or no toxicity"}, {"measurement": "migration of keratinocytes into the scratch", "setting": "[24]", "value": "almost a complete lack of migration"}, {"measurement": "inhibition of activity of MMP-9", "setting": "[25]", "value": "no inhibition"}]}
